Legend:
blackgrass [1] = assay: Test A preemergence; format: in vivo, Alopecurus myosuroides
How it was run: (§1)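 Weeds and crops in loam–sand blend were sprayed preemergence onto soil or postemergence at 2–10 cm (one- to two-leaf stage). Test chemicals were in a non-phytotoxic solvent with surfactant. After 10 days in the greenhouse, injury was rated visually against untreated controls on a 0 (no effect) to 100 (complete control) scale.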

corn [2] = assay: Test A preemergence; format: in vivo, Zea mays
How it was run: as §1

foxtail, giant [3] = assay: Test A preemergence; format: in vivo, Setaria faberi
How it was run: as §1

goosegrass [4] = assay: Test A preemergence; format: in vivo, Eleusine indica
How it was run: as §1

kochia [5] = assay: Test A preemergence; format: in vivo, Bassia scoparia
How it was run: as §1

oat, wild [6] = assay: Test A preemergence; format: in vivo, Avena fatua
How it was run: as §1

pigweed, palmer [7] = assay: Test A preemergence; format: in vivo, Amaranthus palmeri
How it was run: as §1

ragweed [8] = assay: Test A preemergence; format: in vivo, Ambrosia artemisiifolia
How it was run: as §1

ryegrass, Italian [9] = assay: Test A preemergence; format: in vivo, Lolium multiflorum
How it was run: as §1

soybean [10] = assay: Test A preemergence; format: in vivo, Glycine max
How it was run: as §1

wheat [11] = assay: Test A preemergence; format: in vivo, Triticum aestivum
How it was run: as §1

blackgrass [12] = assay: Test A postemergence; format: in vivo, Alopecurus myosuroides
How it was run: as §1

corn [13] = assay: Test A postemergence; format: in vivo, Zea mays; conditions: postemergence, 10 days; for Plant response rating, Corn: visual injury, 0 to 100 scale (0 no effect, 100 complete control)
How it was run: as §1

foxtail, giant [14] = assay: Test A postemergence; format: in vivo, Setaria faberi; conditions: postemergence, 10 days; for Plant response rating, Foxtail, Giant: visual injury, 0 to 100 scale (0 no effect, 100 complete control)
How it was run: as §1

goosegrass [15] = assay: Test A postemergence; format: in vivo, Eleusine indica; conditions: postemergence, 10 days; for Plant response rating, Goosegrass: visual injury, 0 to 100 scale (0 no effect, 100 complete control)
How it was run: as §1

kochia [16] = assay: Test A postemergence; format: in vivo, Bassia scoparia; conditions: postemergence, 10 days; for Plant response rating, Kochia: visual injury, 0 to 100 scale (0 no effect, 100 complete control)
How it was run: as §1

oat, wild [17] = assay: Test A postemergence; format: in vivo, Avena fatua; conditions: postemergence, 10 days; for Plant response rating, Oat, Wild: 500 g ai/ha, visual injury, 0 to 100 scale (0 no effect, 100 complete control)
How it was run: as §1

pigweed, palmer [18] = assay: Test A postemergence; format: in vivo, Amaranthus palmeri; conditions: postemergence, 10 days; for Plant response rating, Pigweed, Palmer: 500 g ai/ha, visual injury, 0 to 100 scale (0 no effect, 100 complete control)
How it was run: as §1

ragweed [19] = assay: Test A postemergence; format: in vivo, Ambrosia artemisiifolia; conditions: postemergence, 10 days; for Plant response rating, Ragweed: 500 g ai/ha, visual injury, 0 to 100 scale (0 no effect, 100 complete control)
How it was run: as §1

ryegrass, Italian [20] = assay: Test A postemergence; format: in vivo, Lolium multiflorum; conditions: postemergence, 10 days; for Plant response rating, Ryegrass, Italian: 500 g ai/ha, visual injury, 0 to 100 scale (0 no effect, 100 complete control)
How it was run: as §1

soybean [21] = assay: Test A postemergence; format: in vivo, Glycine max; conditions: postemergence, 10 days; for Plant response rating, Soybean: 500 g ai/ha, visual injury, 0 to 100 scale (0 no effect, 100 complete control)
How it was run: as §1

wheat [22] = assay: Test A postemergence; format: in vivo, Triticum aestivum; conditions: postemergence, 10 days; for Plant response rating, Wheat: 500 g ai/ha, visual injury, 0 to 100 scale (0 no effect, 100 complete control)
How it was run: as §1

galium = assay: Test A postemergence; format: in vivo, Galium aparine; conditions: postemergence, 10 days; for Plant response rating, Galium: visual injury, 0 to 100 scale (0 no effect, 100 complete control)
How it was run: as §1

horseweed = assay: Test A postemergence; format: in vivo, Erigeron canadensis; conditions: postemergence, 10 days; for Plant response rating, Horseweed: visual injury, 0 to 100 scale (0 no effect, 100 complete control)
How it was run: as §1

barnyardgrass = assay: Test B flooded paddy test; format: in vivo, Echinochloa crus-galli; conditions: 250 g ai/ha, Flood, 13 days, 0 to 100 scale (0 no effect, 100 complete control)
How it was run: (§2)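 Application into standing water (3 cm above soil) at the two-leaf stage; flood depth held constant. Evaluation: day 13, visual comparison with controls, 0 = no injury, 100 = complete control.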

ducksalad = assay: Test B flooded paddy test; format: in vivo, Heteranthera limosa; conditions: 250 g ai/ha, Flood, 13 days, 0 to 100 scale (0 no effect, 100 complete control)
How it was run: as §2

rice = assay: Test B flooded paddy test; format: in vivo, Oryza sativa; conditions: 250 g ai/ha, Flood, 13 days, 0 to 100 scale (0 no effect, 100 complete control)
How it was run: as §2

sedge, umbrella = assay: Test B flooded paddy test; format: in vivo, Cyperus difformis; conditions: 250 g ai/ha, Flood, 13 days, 0 to 100 scale (0 no effect, 100 complete control)
How it was run: as §2

[23] = 125 g ai/ha, visual injury after 10 days, 0 to 100 scale, 0 is no effect, 100 is complete control
[24] = 500 g ai/ha, 0 to 100 scale (0 no effect, 100 complete control), 10 days
[25] = 125 g ai/ha, 0 to 100 scale, 0 no effect, 100 complete control

## CC(C)c1ncn(-c2ccc(O)c(C(=O)N3C[C@H](C)Oc4c(Cl)cccc43)c2)n1 [Compound 105]
Blackgrass [1]; [23]
  Plant response rating, Blackgrass: 10
Blackgrass [1]; [24]
  Plant response rating, Blackgrass: 20
Corn [2]; [23]
  Plant response rating, Corn: 0
Corn [2]; [24]
  Plant response rating, Corn: 0
foxtail, giant [3]; [23]
  Plant response rating, Foxtail, Giant: 70
foxtail, giant [3]; [24]
  Plant response rating, Foxtail, Giant: 100
Goosegrass [4]; [23]
  Plant response rating, Goosegrass: 60
Goosegrass [4]; [24]
  Plant response rating, Goosegrass: 100
Kochia [5]; [23]
  Plant response rating, Kochia: 50
Kochia [5]; [24]
  Plant response rating, Kochia: 90
oat, wild [6]; [23]
  Plant response rating, Oat, Wild: 70
oat, wild [6]; [24]
  Plant response rating, Oat, Wild: 70
pigweed, palmer [7]; [23]
  Plant response rating, Pigweed, Palmer: 30
pigweed, palmer [7]; [24]
  Plant response rating, Pigweed, Palmer: 90
Ragweed [8]; [23]
  Plant response rating, Ragweed: 0
Ragweed [8]; [24]
  Plant response rating, Ragweed: 0
ryegrass, Italian [9]; [23]
  Plant response rating, Ryegrass, Italian: 40
ryegrass, Italian [9]; [24]
  Plant response rating, Ryegrass, Italian: 80
Soybean [10]; [23]
  Plant response rating, Soybean: 0
Soybean [10]; [24]
  Plant response rating, Soybean: 0
Wheat [11]; [23]
  Plant response rating, Wheat: 0
Wheat [11]; [24]
  Plant response rating, Wheat: 10
Blackgrass [12]; 125 g ai/ha, postemergence, 10 days, 0 to 100 scale, 0 no effect, 100 complete control
  Blackgrass plant response rating: 30
Blackgrass [12]; 500 g ai/ha, postemergence, 10 days, visual injury, 0 to 100 scale (0 no effect, 100 complete control)
  Plant response rating, Blackgrass: 30
Corn [13]; [25]
  Corn plant response rating: 20
Corn [13]; 500 g ai/ha
  Plant response rating, Corn: 50
foxtail, giant [14]; [25]
  Foxtail, Giant plant response rating: 20
foxtail, giant [14]; 500 g ai/ha
  Plant response rating, Foxtail, Giant: 80
Goosegrass [15]; [25]
  Goosegrass plant response rating: 0
Goosegrass [15]; 500 g ai/ha
  Plant response rating, Goosegrass: 50
Kochia [16]; [25]
  Kochia plant response rating: 90
Kochia [16]; 500 g ai/ha
  Plant response rating, Kochia: 90
oat, wild [17]; [25]
  Oat, Wild plant response rating: 70
oat, wild [17]
  Plant response rating, Oat, Wild: 70
pigweed, palmer [18]; [25]
  Pigweed, Palmer plant response rating: 40
pigweed, palmer [18]
  Plant response rating, Pigweed, Palmer: 60
Ragweed [19]; [25]
  Ragweed plant response rating: 0
Ragweed [19]
  Plant response rating, Ragweed: 0
ryegrass, Italian [20]; [25]
  Ryegrass, Italian plant response rating: 0
ryegrass, Italian [20]
  Plant response rating, Ryegrass, Italian: 20
Soybean [21]; [25]
  Soybean plant response rating: 70
Soybean [21]
  Plant response rating, Soybean: 100
Wheat [22]; [25]
  Wheat plant response rating: 0
Wheat [22]
  Plant response rating, Wheat: 10
galium; [25]
  Galium plant response rating: 60
galium; 500 g ai/ha
  Plant response rating, Galium: 70
horseweed; [25]
  Horseweed plant response rating: 0
horseweed; 500 g ai/ha
  Plant response rating, Horseweed: 0
barnyardgrass
  Plant response rating, Barnyardgrass: 0
ducksalad
  Plant response rating, Ducksalad: 0
rice
  Plant response rating, Rice: 0
sedge, umbrella
  Plant response rating, Sedge, Umbrella: 0

## CCc1ncn(-c2cccc(C(=O)N3C[C@H](C)Oc4c(C)cccc43)c2)n1 [Compound 71]
Blackgrass [1]; [23]
  Plant response rating, Blackgrass: 80
Blackgrass [1]; [24]
  Plant response rating, Blackgrass: 90
Corn [2]; [23]
  Plant response rating, Corn: 40
Corn [2]; [24]
  Plant response rating, Corn: 60
foxtail, giant [3]; [23]
  Plant response rating, Foxtail, Giant: 100
foxtail, giant [3]; [24]
  Plant response rating, Foxtail, Giant: 100
Goosegrass [4]; [23]
  Plant response rating, Goosegrass: 100
Goosegrass [4]; [24]
  Plant response rating, Goosegrass: 100
Kochia [5]; [23]
  Plant response rating, Kochia: 80
Kochia [5]; [24]
  Plant response rating, Kochia: 100
oat, wild [6]; [23]
  Plant response rating, Oat, Wild: 90
oat, wild [6]; [24]
  Plant response rating, Oat, Wild: 90
pigweed, palmer [7]; [23]
  Plant response rating, Pigweed, Palmer: 100
pigweed, palmer [7]; [24]
  Plant response rating, Pigweed, Palmer: 100
Ragweed [8]; [23]
  Plant response rating, Ragweed: 0
Ragweed [8]; [24]
  Plant response rating, Ragweed: 90
ryegrass, Italian [9]; [23]
  Plant response rating, Ryegrass, Italian: 100
ryegrass, Italian [9]; [24]
  Plant response rating, Ryegrass, Italian: 100
Soybean [10]; [23]
  Plant response rating, Soybean: 50
Soybean [10]; [24]
  Plant response rating, Soybean: 90
Wheat [11]; [23]
  Plant response rating, Wheat: 30
Wheat [11]; [24]
  Plant response rating, Wheat: 90
Blackgrass [12]; 125 g ai/ha, postemergence, 10 days, visual injury, 0 to 100 scale (0 no effect, 100 complete control)
  Plant response rating, Blackgrass: 80
Blackgrass [12]; 500 g ai/ha, Postemergence, 0 to 100 scale
  Plant response rating, Blackgrass: 90
Corn [13]; 125 g ai/ha
  Plant response rating, Corn: 60
Corn [13]; 500 g ai/ha
  Plant response rating, Corn: 90
foxtail, giant [14]; 125 g ai/ha
  Plant response rating, Foxtail, Giant: 90
foxtail, giant [14]; 500 g ai/ha
  Plant response rating, Foxtail, Giant: 90
Goosegrass [15]; 125 g ai/ha
  Plant response rating, Goosegrass: 10
Goosegrass [15]; 500 g ai/ha
  Plant response rating, Goosegrass: 50
Kochia [16]; 125 g ai/ha
  Plant response rating, Kochia: 60
Kochia [16]; 500 g ai/ha
  Plant response rating, Kochia: 90
oat, wild [17]
  Plant response rating, Oat, Wild: 80
pigweed, palmer [18]
  Plant response rating, Pigweed, Palmer: 70
Ragweed [19]
  Plant response rating, Ragweed: 80
ryegrass, Italian [20]
  Plant response rating, Ryegrass, Italian: 100
Soybean [21]
  Plant response rating, Soybean: 100
Wheat [22]
  Plant response rating, Wheat: 80
galium; 125 g ai/ha
  Plant response rating, Galium: 100
galium; 500 g ai/ha
  Plant response rating, Galium: 100
horseweed; 125 g ai/ha
  Plant response rating, Horseweed: 30
horseweed; 500 g ai/ha
  Plant response rating, Horseweed: 80
barnyardgrass
  Plant response rating, Barnyardgrass: 0
ducksalad
  Plant response rating, Ducksalad: 65
rice
  Plant response rating, Rice: 0
sedge, umbrella
  Plant response rating, Sedge, Umbrella: 95

Reference: US20260262643A1, “HERBICIDAL BENZOXAZINES” (FMC CORPORATION, priority 2022, published 2026)
